Test results: ChEMBL document CHEMBL4813986, “Multicomponent synthesis and anti-proliferative screening of biaryl triazole-containing cyclophanes” (Bioorg Med Chem Lett, 2021)
≈ marks a conversion by molar mass, not a printed value. Calls of active or inactive are those of the source. No cut-off for these calls is given here.

Experiments:
[1] = system: PC-3; experiment: Antiproliferative activity against human PC-3 cells assessed as inhibition of cell growth at 50 uM relative to control; assay type: functional
[2] = system: MCF7; experiment: Antiproliferative activity against human MCF7 cells assessed as inhibition of cell growth at 50 uM relative to control; assay type: functional
[3] = system: DU-145; experiment: Antiproliferative activity against human DU-145 cells assessed as inhibition of cell growth at 50 uM relative to control; assay type: functional
[4] = Cytotoxicity against African green monkey COS7 cells assessed as inhibition of cell growth at 50 uM relative to control; assay type: cell-based; details: chlorocebus aethiops, COS-7 cells
[5] = Aqueous solubility of the compound; assay type: physicochemical; details: buffer
[6] = system: PC-3; experiment: Antiproliferative activity against human PC-3 cells assessed as inhibition of cell growth; assay type: functional, cell-based
[7] = system: Bel-7402; experiment: Cytotoxicity against human Bel-7402 cells assessed as reduction in cell viability measured after 5 days by MTT assay; assay type: functional, cell-based

Compound	inhibition at 50 µM [1] [%]	inhibition at 50 µM [2] [%]	inhibition at 50 µM [3] [%]	inhibition at 50 µM [4] [%]	solubility [5]	inhibition [3]	IC50 [6] [µM]	IC50 [7] [µg/mL]
O=C(NC1CCCCC1)C1c2cccc(c2)-c2ccc(cc2)OCc2cn(nn2)CCOc2ccc(cc2)CC(=O)N1Cc1ccccc1 (stereo not given)	11.6	15.2	11	9.9				
CCCCCCCCCCCCNC(=O)C1c2cccc(c2)-c2ccc(cc2)OCc2cn(nn2)CCCOc2ccc(cc2)CC(=O)N1c1ccc(C(C)C)cc1 (stereo not given)	30.1	31.8	21.2	9.9	Insoluble			
O=C(NC1CCCCC1)C1c2cccc(c2)-c2ccc(cc2)OCc2cn(nn2)CCCOc2ccc(cc2)CC(=O)N1c1ccc(C(F)(F)F)cc1 (stereo not given)	35.5	60.9	20.1	30.9				
O=C(NC1CCCCC1)C1c2cccc(c2)-c2ccc(cc2)OCc2cn(nn2)CCOc2ccc(cc2)CC(=O)N1c1ccc(C(F)(F)F)cc1 (stereo not given)	46.9	45.8	37.1	37.7				
O=C(NC1CCCCC1)C1c2cccc(c2)-c2ccc(cc2)OCc2cn(nn2)CCOc2ccc(cc2)CC(=O)N1c1ccc(F)cc1 (stereo not given)	50.3	43.2	28.4	43.2				
CCCCCCCCCCCCNC(=O)C1c2cccc(c2)-c2ccc(cc2)OCc2cn(nn2)CCCCOc2ccc(cc2)CC(=O)N1c1ccc(C(F)(F)F)cc1 (stereo not given)	36.4	42.9	52.8	16.6				
CC(C)(C)NC(=O)C1c2cccc(c2)-c2ccc(cc2)OCc2cn(nn2)CCCOc2ccc(cc2)CC(=O)N1Cc1ccccc1 (stereo not given)	5.5	67.9		33.1		inactive		
CCCCCCCCCCCCNC(=O)C1c2cccc(c2)-c2ccc(cc2)OCc2cn(nn2)CCOc2ccc(cc2)CC(=O)N1c1ccc(F)cc1 (stereo not given)	68.3	82.4	93.1	35			13.9	
CCCCCCCCCCCCNC(=O)C1c2cccc(c2)-c2ccc(cc2)OCc2cn(nn2)CCCOc2ccc(cc2)CC(=O)N1c1ccc(C(F)(F)F)cc1 (stereo not given)	15.3	45.6	9.8	20.4				
CC(C)c1ccc(N2C(=O)Cc3ccc(cc3)OCCn3cc(nn3)COc3ccc(cc3)-c3cccc(c3)C2C(=O)NC2CCCCC2)cc1 (stereo not given)	90.2	81.8	93.8	37.5			4.6	
CC1=C[C@H]2O[C@@H]3C[C@H]4OC(=O)/C=C\C=C\[C@@H]5O[C@@H](O[C@H]5C)[C@H](O)/C(C)=C/C(=O)OC[C@@]2(CC1)[C@]4(C)[C@]31CO1								0.35 (≈ 0.662 µM)
CCCCCCCCCCCCNC(=O)C1c2cccc(c2)-c2ccc(cc2)OCc2cn(nn2)CCCCCOc2ccc(cc2)CC(=O)N1c1ccc(C(F)(F)F)cc1 (stereo not given)	22	24.9		10.2		inactive		
O=C(NC1CCCCC1)C1c2cccc(c2)-c2ccc(cc2)OCc2cn(nn2)CCCCCOc2ccc(cc2)CC(=O)N1c1ccc(C(F)(F)F)cc1 (stereo not given)	46	53.3	48.8	45.4				
CC(C)c1ccc(N2C(=O)Cc3ccc(cc3)OCCCn3cc(nn3)COc3ccc(cc3)-c3cccc(c3)C2C(=O)NC2CCCCC2)cc1 (stereo not given)	60.8	58.2	41.9	48			13.8	
CC(C)(C)NC(=O)C1c2cccc(c2)-c2ccc(cc2)OCc2cn(nn2)CCOc2ccc(cc2)CC(=O)N1Cc1ccccc1 (stereo not given)	48.3	44.6	25.5	37.8				
COc1cc([C@@H]2c3cc4c(cc3[C@@H](O[C@@H]3O[C@@H]5CO[C@@H](C)O[C@H]5[C@H](O)[C@H]3O)[C@H]3COC(=O)[C@H]23)OCO4)cc(OC)c1O [ETOPOSIDE]							31.5	
CCCCCCCCCCCCNC(=O)C1c2cccc(c2)-c2ccc(cc2)OCc2cn(nn2)CCOc2ccc(cc2)CC(=O)N1Cc1ccccc1 (stereo not given)	25.8	26.4	10.4	28.2				
O=C(NC1CCCCC1)C1c2cccc(c2)-c2ccc(cc2)OCc2cn(nn2)CCCCOc2ccc(cc2)CC(=O)N1c1ccc(C(F)(F)F)cc1 (stereo not given)	48.5	57.1	39	38.1				
CCCCCCCCCCCCNC(=O)C1c2cccc(c2)-c2ccc(cc2)OCc2cn(nn2)CCOc2ccc(cc2)CC(=O)N1c1ccc(C(C)C)cc1 (stereo not given)	25.4	39.2	51	25.6	Insoluble			
CC(C)c1ccc(N2C(=O)Cc3ccc(cc3)OCCCn3cc(nn3)COc3cccc(c3)C2C(=O)NC2CCCCC2)cc1 (stereo not given)							9.7	
CCCCCCCCCCCCNC(=O)C1c2cccc(c2)-c2ccc(cc2)OCc2cn(nn2)CCOc2ccc(cc2)CC(=O)N1c1ccc(C(F)(F)F)cc1 (stereo not given)	45.8	41.7	19.7	33.6				
